Values quoted from earlier work, collected in patent publication US5208032A, “Increasing the growth of turkeys using implant of 19-nortestosterone” (Rutgers, The State University of New Jersey, priority 1992, dated 1993).

What was measured:
testosterone antiserum = conditions: manufacturer statement; cited from earlier work
5-alpha-DHT anti-serum = conditions: antibody provided by Dr. Alan L. Johnson; cited from earlier work
[1] = mice, Innovative Research pellets, 21 days; cited from earlier work

Structure (SMILES)	cross-reaction with Immuchem testosterone antiserum (testosterone antiserum)	reaction with 5-alpha-DHT anti-serum (Ford's-F/1) (5-alpha-DHT anti-serum) [%]	maintained blood levels [1] [ng/mL]
C[C@]12CCC(=O)C=C1CC[C@@H]1[C@@H]2CC[C@]2(C)C(=O)CC[C@@H]12 [4-adrosten-3,17-dione]	0.56%	11.4	–
C[C@]12CC[C@@H](O)C[C@@H]1CC[C@@H]1[C@@H]2CC[C@]2(C)[C@@H](O)CC[C@@H]12 [5-alpha-androstane-3-alpha,17-beta-diol]	less than 0.01%	–	–
C[C@]12CC[C@@H]3c4ccc(O)cc4CC[C@H]3[C@@H]1CC[C@@H]2O [17 beta-estradiol]	–	–	20 to 30
